Measurements reported in patent publication US20260007681A1, “INDOLE DERIVATIVES AS ESTROGEN RECEPTOR DEGRADERS” (REGENTS OF THE UNIVERSITY OF MICHIGAN, priority 2022, published 2026).

Biological target: ER (Homo sapiens (Human), UniProt P03372)
Test: Western blot analysis (Compounds B1-B278)
Type: cell-based
Conditions: ER degradation by traditional Western blot; DC50 classes
How it was run: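 Compound-treated cells were lysed in RIPA buffer (Tris.HCl pH 7.6, 1% NP-40, deoxycholate, 0.1% SDS) with protease inhibitors; equal protein was resolved on 10% SDS-PAGE, transferred to PVDF and immunoblotted. Band intensities were quantified and normalized to GAPDH.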

Chain of ER (P03372 whole entry): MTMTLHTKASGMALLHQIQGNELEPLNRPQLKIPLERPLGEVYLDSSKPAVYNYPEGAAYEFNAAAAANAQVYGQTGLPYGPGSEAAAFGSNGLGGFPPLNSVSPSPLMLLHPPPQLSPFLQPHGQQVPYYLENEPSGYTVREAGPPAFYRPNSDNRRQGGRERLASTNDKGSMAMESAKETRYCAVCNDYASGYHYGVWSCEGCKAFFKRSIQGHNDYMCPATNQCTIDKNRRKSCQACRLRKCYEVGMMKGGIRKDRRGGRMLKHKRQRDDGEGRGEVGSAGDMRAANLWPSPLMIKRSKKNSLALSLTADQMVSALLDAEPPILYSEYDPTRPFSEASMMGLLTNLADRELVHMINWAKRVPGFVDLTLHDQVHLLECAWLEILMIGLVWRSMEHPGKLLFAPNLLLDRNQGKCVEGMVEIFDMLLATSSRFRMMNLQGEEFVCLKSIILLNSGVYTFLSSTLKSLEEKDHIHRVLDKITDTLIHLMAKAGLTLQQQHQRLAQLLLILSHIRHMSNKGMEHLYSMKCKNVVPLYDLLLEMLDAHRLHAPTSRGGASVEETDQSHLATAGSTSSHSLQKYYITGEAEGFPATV

Compound | Traditional Western Degradation Potency
C[C@@H]1Cc2c([nH]c3ccccc23)[C@@H](c2c(F)cc(N3CCC4(CCN(CC(=O)N5Cc6cc7c(cc6C5)C(=O)N(C5CCC(=O)NC5=O)C7=O)CC4)C3)cc2F)N1CC(F)F (stereo partly drawn) [Compound B47, 6-(2-(2-(4-((1R,3R)-2-(2,2-difluoroethyl)-3-methyl-2,3,4,9-tetrahydro-1H-pyrido[3,4-b]indol-1-yl)-3,5-difluorophenyl)-2,8-diazaspiro[4.5]decan-8-yl)acetyl)-2-(2,6-dioxopiperidin-3-yl)-6,7-dihydropyrrolo[3,4-f]isoindole-1,3(2H,5H)-dione] | A (“A”: <10 nM)
C[C@@H]1Cc2c([nH]c3ccccc23)[C@@H](c2c(F)cc(N3CCC4(CCN(CC(=O)N5Cc6cc7c(cc6C5)C(=O)N(C5CCC(=O)NC5=O)C7)CC4)C3)cc2F)N1CC(F)F (stereo partly drawn) [Compound B48, 3-(6-(2-(2-(4-((1R,3R)-2-(2,2-difluoroethyl)-3-methyl-2,3,4,9-tetrahydro-1H-pyrido[3,4-b]indol-1-yl)-3,5-difluorophenyl)-2,8-diazaspiro[4.5]decan-8-yl)acetyl)-1-oxo-3,5,6,7-tetrahydropyrrolo[3,4-f]isoindol-2(1H)-yl)piperidine-2,6-dione] | A (“A”: <10 nM)
C[C@@H]1Cc2c([nH]c3ccccc23)[C@@H](c2c(F)cc(N3CCC(N4CCC(C(=O)N5Cc6cc7c(cc6C5)C(=O)N(C5CCC(=O)NC5=O)C7=O)CC4)C3)cc2F)N1CC(F)F (stereo partly drawn) [Compound B50, 6-(1-(1-(4-((1R,3R)-2-(2,2-difluoroethyl)-3-methyl-2,3,4,9-tetrahydro-1H-pyrido[3,4-b]indol-1-yl)-3,5-difluorophenyl)pyrrolidin-3-yl)piperidine-4-carbonyl)-2-(2,6-dioxopiperidin-3-yl)-6,7-dihydropyrrolo[3,4-f]isoindole-1,3(2H,5H)-dione] | C (“C”: >100 nM)
C[C@@H]1Cc2c([nH]c3ccccc23)[C@@H](c2c(F)cc(N3CCC4(CC3)CN(C(=O)CN3Cc5cc6c(cc5C3)C(=O)N(C3CCC(=O)NC3=O)C6=O)C4)cc2F)N1CC(F)F (stereo partly drawn) [Compound B51, 6-(2-(7-(4-((1R,3R)-2-(2,2-difluoroethyl)-3-methyl-2,3,4,9-tetrahydro-1H-pyrido[3,4-b]indol-1-yl)-3,5-difluorophenyl)-2,7-diazaspiro[3.5]nonan-2-yl)-2-oxoethyl)-2-(2,6-dioxopiperidin-3-yl)-6,7-dihydropyrrolo[3,4-f]isoindole-1,3(2H,5H)-dione] | A (“A”: <10 nM)
C[C@@H]1Cc2c([nH]c3ccccc23)[C@@H](c2c(F)cc(N3CCC4(CCN(C(=O)CN5Cc6cc7c(cc6C5)C(=O)N(C5CCC(=O)NC5=O)C7=O)CC4)CC3)cc2F)N1CC(F)F (stereo partly drawn) [Compound B52, 6-(2-(9-(4-((1R,3R)-2-(2,2-difluoroethyl)-3-methyl-2,3,4,9-tetrahydro-1H-pyrido[3,4-b]indol-1-yl)-3,5-difluorophenyl)-3,9-diazaspiro[5.5]undecan-3-yl)-2-oxoethyl)-2-(2,6-dioxopiperidin-3-yl)-6,7-dihydropyrrolo[3,4-f]isoindole-1,3(2H,5H)-dione] | A (“A”: <10 nM)
C[C@@H]1Cc2c([nH]c3ccccc23)[C@@H](c2c(F)cc(N3CCC(C(=O)N4CCC(CN5Cc6cc7c(cc6C5)C(=O)N(C5CCC(=O)NC5=O)C7=O)CC4)CC3)cc2F)N1CC(F)F (stereo partly drawn) [Compound B53, 6-((1-(1-(4-((1R,3R)-2-(2,2-difluoroethyl)-3-methyl-2,3,4,9-tetrahydro-1H-pyrido[3,4-b]indol-1-yl)-3,5-difluorophenyl)piperidine-4-carbonyl)piperidin-4-yl)methyl)-2-(2,6-dioxopiperidin-3-yl)-6,7-dihydropyrrolo[3,4-f]isoindole-1,3(2H,5H)-dione] | B (“B”: 10-100 nM)
C[C@@H]1Cc2c([nH]c3ccccc23)[C@@H](c2c(F)cc(N3CCC(C(=O)N4CCC(N5Cc6cc7c(cc6C5)C(=O)N(C5CCC(=O)NC5=O)C7=O)CC4)CC3)cc2F)N1CC(F)F (stereo partly drawn) [Compound B54, 6-(1-(1-(4-((1R,3R)-2-(2,2-difluoroethyl)-3-methyl-2,3,4,9-tetrahydro-1H-pyrido[3,4-b]indol-1-yl)-3,5-difluorophenyl)piperidine-4-carbonyl)piperidin-4-yl)-2-(2,6-dioxopiperidin-3-yl)-6,7-dihydropyrrolo[3,4-f]isoindole-1,3(2H,5H)-dione] | A (“A”: <10 nM)
C[C@@H]1Cc2c([nH]c3ccccc23)[C@@H](c2c(F)cc(N3CC4(CC(C(=O)N5CCC(CN6Cc7cc8c(cc7C6)C(=O)N(C6CCC(=O)NC6=O)C8=O)CC5)C4)C3)cc2F)N1CC(F)F (stereo partly drawn) [Compound B55, 6-((1-(2-(4-((1R,3R)-2-(2,2-difluoroethyl)-3-methyl-2,3,4,9-tetrahydro-1H-pyrido[3,4-b]indol-1-yl)-3,5-difluorophenyl)-2-azaspiro[3.3]heptane-6-carbonyl)piperidin-4-yl)methyl)-2-(2,6-dioxopiperidin-3-yl)-6,7-dihydropyrrolo[3,4-f]isoindole-1,3(2H,5H)-dione] | A (“A”: <10 nM)
C[C@@H]1Cc2c([nH]c3ccccc23)[C@@H](c2c(F)cc(N3CC4(CC(C(=O)N5CCC(N6Cc7cc8c(cc7C6)C(=O)N(C6CCC(=O)NC6=O)C8=O)CC5)C4)C3)cc2F)N1CC(F)F (stereo partly drawn) [Compound B56, 6-(1-(2-(4-((1R,3R)-2-(2,2-difluoroethyl)-3-methyl-2,3,4,9-tetrahydro-1H-pyrido[3,4-b]indol-1-yl)-3,5-difluorophenyl)-2-azaspiro[3.3]heptane-6-carbonyl)piperidin-4-yl)-2-(2,6-dioxopiperidin-3-yl)-6,7-dihydropyrrolo[3,4-f]isoindole-1,3(2H,5H)-dione] | A (“A”: <10 nM)
C[C@@H]1Cc2c([nH]c3ccccc23)[C@@H](c2c(F)cc(N3CCC(N4CC(CN5Cc6cc7c(cc6C5)C(=O)N(C5CCC(=O)NC5=O)C7=O)C4)CC3)cc2F)N1CC(F)F (stereo partly drawn) [Compound B57, 6-((1-(1-(4-((1R,3R)-2-(2,2-difluoroethyl)-3-methyl-2,3,4,9-tetrahydro-1H-pyrido[3,4-b]indol-1-yl)-3,5-difluorophenyl)piperidin-4-yl)azetidin-3-yl)methyl)-2-(2,6-dioxopiperidin-3-yl)-6,7-dihydropyrrolo[3,4-f]isoindole-1,3(2H,5H)-dione] | B (“B”: 10-100 nM)
C[C@@H]1Cc2c([nH]c3ccccc23)[C@@H](c2c(F)cc(N3CCC(N4CCC(CN5Cc6cc7c(cc6C5)C(=O)N(C5CCC(=O)NC5=O)C7=O)CC4)CC3)cc2F)N1CC(F)F (stereo partly drawn) [Compound B58, 6-((1′-(4-((1R,3R)-2-(2,2-difluoroethyl)-3-methyl-2,3,4,9-tetrahydro-1H-pyrido[3,4-b]indol-1-yl)-3,5-difluorophenyl)-[1,4′-bipiperidin]-4-yl)methyl)-2-(2,6-dioxopiperidin-3-yl)-6,7-dihydropyrrolo[3,4-f]isoindole-1,3(2H,5H)-dione] | C (“C”: >100 nM)
C[C@@H]1Cc2c([nH]c3ccccc23)[C@@H](c2c(F)cc(N3CCC(N4CC(C(=O)N5Cc6cc7c(cc6C5)C(=O)N(C5CCC(=O)NC5=O)C7=O)C4)CC3)cc2F)N1CC(F)F (stereo partly drawn) [Compound B59, 6-(1-(1-(4-((1R,3R)-2-(2,2-difluoroethyl)-3-methyl-2,3,4,9-tetrahydro-1H-pyrido[3,4-b]indol-1-yl)-3,5-difluorophenyl)piperidin-4-yl)azetidine-3-carbonyl)-2-(2,6-dioxopiperidin-3-yl)-6,7-dihydropyrrolo[3,4-f]isoindole-1,3(2H,5H)-dione] | C (“C”: >100 nM)
C[C@@H]1Cc2c([nH]c3ccccc23)[C@@H](c2c(F)cc(N3CCC(N4CC(C(=O)N5Cc6cc7c(cc6C5)C(=O)N(C5CCC(=O)NC5=O)C7)C4)CC3)cc2F)N1CC(F)F (stereo partly drawn) [Compound B60, 3-(6-(1-(1-(4-((1R,3R)-2-(2,2-difluoroethyl)-3-methyl-2,3,4,9-tetrahydro-1H-pyrido[3,4-b]indol-1-yl)-3,5-difluorophenyl)piperidin-4-yl)azetidine-3-carbonyl)-1-oxo-3,5,6,7-tetrahydropyrrolo[3,4-f]isoindol-2(1H)-yl)piperidine-2,6-dione] | B (“B”: 10-100 nM)
C[C@@H]1Cc2c([nH]c3ccccc23)[C@@H](c2c(F)cc(N3CC(C(=O)N4CCC(CN5Cc6cc7c(cc6C5)C(=O)N(C5CCC(=O)NC5=O)C7=O)CC4)C3)cc2F)N1CC(F)F (stereo partly drawn) [Compound B61, 6-((1-(1-(4-((1R,3R)-2-(2,2-difluoroethyl)-3-methyl-2,3,4,9-tetrahydro-1H-pyrido[3,4-b]indol-1-yl)-3,5-difluorophenyl)azetidine-3-carbonyl)piperidin-4-yl)methyl)-2-(2,6-dioxopiperidin-3-yl)-6,7-dihydropyrrolo[3,4-f]isoindole-1,3(2H,5H)-dione] | A (“A”: <10 nM)
C[C@@H]1Cc2c([nH]c3ccccc23)[C@@H](c2c(F)cc(N3CC(C(=O)N4CCC(N5Cc6cc7c(cc6C5)C(=O)N(C5CCC(=O)NC5=O)C7=O)CC4)C3)cc2F)N1CC(F)F (stereo partly drawn) [Compound B62, 6-(1-(1-(4-((1R,3R)-2-(2,2-difluoroethyl)-3-methyl-2,3,4,9-tetrahydro-1H-pyrido[3,4-b]indol-1-yl)-3,5-difluorophenyl)azetidine-3-carbonyl)piperidin-4-yl)-2-(2,6-dioxopiperidin-3-yl)-6,7-dihydropyrrolo[3,4-f]isoindole-1,3(2H,5H)-dione] | A (“A”: <10 nM)
C[C@@H]1Cc2c([nH]c3ccccc23)[C@@H](c2c(F)cc(N3CCC(CN4CC(N5Cc6cc7c(cc6C5)C(=O)N(C5CCC(=O)NC5=O)C7=O)C4)CC3)cc2F)N1CC(F)F (stereo partly drawn) [Compound B63, 6-(1-((1-(4-((1R,3R)-2-(2,2-difluoroethyl)-3-methyl-2,3,4,9-tetrahydro-1H-pyrido[3,4-b]indol-1-yl)-3,5-difluorophenyl)piperidin-4-yl)methyl)azetidin-3-yl)-2-(2,6-dioxopiperidin-3-yl)-6,7-dihydropyrrolo[3,4-f]isoindole-1,3(2H,5H)-dione] | B (“B”: 10-100 nM)
